How the values were obtained:
[1] = target: α2β2γ1 GABAA receptor subtype (Homo sapiens (Human), UniProt P47869+Q8N1C3); experiment: Two-electrode voltage clamp electrophysiology in Xenopus oocytes expressing GABAA receptors (modulation of GABA EC20 current); type: cell-based; conditions: for Efficacy (GABA)%: % modulation of GABA EC20 = 100*(Fold increase-1), α2β2γ1 oocytes, compound at approx. 30-fold Ki; for Fold increase h-GABA-A α2β2γ1 oocyte @ 30-fold Ki: Xenopus oocytes expressing α2β2γ1, compound at approx. 30-fold its Ki α2β2γ1, GABA EC20 current
Outline: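 Each concentration was tested on ≥3 oocytes held at −80 mV at room temperature, recorded 3-5 days post-injection. A control and a test response to EC20 GABA (1.5 min each) were superimposed and their point-by-point ratio taken. Peak ratio reported as % modulation of GABA EC20 = 100×(fold increase−1).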

[2] = target: human GABAA α2β2γ1 receptor (Homo sapiens (Human), UniProt P47869+Q8N1C3); experiment: Radioligand binding assay for γ1-containing GABAA subtypes, [3H]RO7239181 competition (α2β2γ1)
[3] = target: human GABAA α1β3γ2 receptor (Homo sapiens (Human), UniProt P14867+P18507); experiment: Radioligand binding assay for γ2-containing GABAA subtypes, [3H]Flumazenil competition (α1β3γ2); conditions: for γ2/γ1 Selectivity Ratio: Ki α1β3γ2 (nM)/Ki α2β2γ1 (nM); for LogSel: Log[Ki α1β3γ2 (nM)/Ki α2β2γ1 (nM)]
[4] = target: human GABAA α5β2γ1 receptor (Homo sapiens (Human), UniProt P31644+Q8N1C3); experiment: Radioligand binding assay for γ1-containing GABAA subtypes, [3H]RO7239181 competition (α5β2γ1)
[5] = Ki h-GABAA α2β2γ1, [3H]RO7239181 competition binding, human GABAA α2β2γ1
[6] = Ki h-GABAA α2β2γ1, displacement of [3H]RO7239181, membranes of HEK293F cells expressing human receptors, means of two determinations

Compound	Efficacy (GABA)% [1]	Fold increase h-GABA-A α2β2γ1 oocyte @ 30-fold Ki [1]	Ki [2, 5]	Ki [2, 6]	Ki [3]	γ2/γ1 Selectivity Ratio [3]	LogSel [3]	Ki [4]
C[C@@H]1N=C(c2ncccc2F)c2c(ccc(C(F)(F)F)c2Cl)-n2cc(C(=O)NC[C@@H](C)O)nc21 [Example 157, (4S)-7-chloro-6-(3-fluoro-2-pyridyl)-4-methyl-N-[(2R)-2-hydroxypropyl]-8-(trifluoromethyl)-4H-imidazo[1,2-a][1,4]benzodiazepine-2-carboxamide]	191%	2.91	60.1 nM	60 nM	11100 nM	185.8	2.27	13.4 nM
[2H]C([2H])([2H])NC(=O)c1nc2n(n1)-c1ccc(Cl)c(Cl)c1C(c1c(F)cccc1F)=NC2 [Example 7, 7,8-dichloro-6-(2,6-difluorophenyl)-N-(trideuteriomethyl)-4H-[1,2,4]triazolo[1,5-a][1,4]benzodiazepine-2-carboxamide]	68%	1.68	6 nM	6 nM	455 nM	75.6	1.88	0.75 nM
C[C@@H]1N=C(c2ncccc2F)c2c(ccc(C(F)(F)F)c2Cl)-n2cc(C(=O)N[C@H]3C[C@@H](O)C3)nc21 [Example 166, (4S)-7-chloro-6-(3-fluoro-2-pyridyl)-N-(cis-3-hydroxycyclobutyl)-4-methyl-8-(trifluoromethyl)-4H-imidazo[1,2-a][1,4]benzodiazepine-2-carboxamide]	184%	2.84	46.5 nM	43.4 nM	10200 nM	234.5	2.37	9.14 nM
C[C@@H]1N=C(c2ncccc2F)c2c(ccc(C(F)(F)F)c2Cl)-n2nc(C(=O)N3CC4(CCO4)C3)nc21 [Example 119, 1-oxa-6-azaspiro[3.3]heptan-6-yl-[(4S)-7-chloro-6-(3-fluoro-2-pyridyl)-4-methyl-8-(trifluoromethyl)-4H-[1,2,4]triazolo[1,5-a][1,4]benzodiazepin-2-yl]methanone]	124%	2.24	80.9 nM	80.9 nM	12600 nM	156.1	2.19	10.3 nM
C[C@@H]1N=C(c2ncccc2F)c2c(ccc(Cl)c2Cl)-n2nc(C(=O)N3CC(OC(F)F)C3)nc21 [Example 90, [(4S)-7,8-dichloro-6-(3-fluoro-2-pyridyl)-4-methyl-4H-[1,2,4]triazolo[1,5-a][1,4]benzodiazepin-2-yl]-[3-(difluoromethoxy)azetidin-1-yl]methanone]	104%	2.04	21.8 nM	21.8 nM	4740 nM	217.2	2.34	6.09 nM
C[C@@H]1N=C(c2c(F)cccc2F)c2c(ccc(Cl)c2Cl)-n2nc(C3CC3)nc21 [Example 49, (4S)-7,8-dichloro-2-cyclopropyl-6-(2,6-difluorophenyl)-4-methyl-4H-[1,2,4]triazolo[1,5-a][1,4]benzodiazepine]	75%	1.75	15.7 nM	15.7 nM	619 nM	39.5	1.60	1.41 nM
C[C@@H]1N=C(c2c(F)cccc2F)c2c(ccc(Cl)c2Cl)-n2nc(C(=O)N3CC4(CCCCO4)C3)nc21 [Example 96, [(4S)-7,8-dichloro-6-(2,6-difluorophenyl)-4-methyl-4H-[1,2,4]triazolo[1,5-a][1,4]benzodiazepin-2-yl]-(5-oxa-2-azaspiro[3.5]nonan-2-yl)methanone]	52%	1.52	6.4 nM	6.42 nM	933 nM	145.4	2.16	2.65 nM
C[C@@H]1N=C(c2c(F)cccc2F)c2c(ccc(Cl)c2Cl)-n2nc(N3CC(O)C3)nc21 [Example 66, 1-[(4S)-7,8-dichloro-6-(2,6-difluorophenyl)-4-methyl-4H-[1,2,4]triazolo[1,5-a][1,4]benzodiazepin-2-yl]azetidin-3-ol]	58%	1.58	6.1 nM	6.1 nM	241 nM	39.7	1.60	1.24 nM
COc1nc2n(n1)-c1ccc(Cl)c(Cl)c1C(c1c(F)cccc1F)=N[C@H]2C [Example 91, (4S)-7,8-dichloro-6-(2,6-difluorophenyl)-2-methoxy-4-methyl-4H-[1,2,4]triazolo[1,5-a][1,4]benzodiazepine]	75%	1.75	23.7 nM	23.7 nM	752 nM	31.7	1.50	1.5 nM
C[C@@H]1N=C(c2c(F)cccc2F)c2c(ccc(Cl)c2Cl)-n2nc(CO)nc21 [Example 13, [(4S)-7,8-dichloro-6-(2,6-difluorophenyl)-4-methyl-4H-[1,2,4]triazolo[1,5-a][1,4]benzodiazepin-2-yl]methanol]	59%	1.59	2.6 nM	2.58 nM	368 nM	142.7	2.15	0.6 nM
C[C@@H]1N=C(c2c(F)cccc2F)c2c(ccc(Cl)c2Cl)-n2nc(NC(=O)N3CC(F)C3)nc21 [Example 57, 3-fluoro-N-[(4S)-7,8-dichloro-6-(2,6-difluorophenyl)-4-methyl-4H-[1,2,4]triazolo[1,5-a][1,4]benzodiazepin-2-yl]azetidine-1-carboxamide]	76%	1.76	17.8 nM	17.8 nM	822 nM	46.2	1.67	1.84 nM
C[C@@H]1N=C(c2c(F)cccc2F)c2c(ccc(Cl)c2Cl)-n2ncnc21 [Example 15, (4S)-7,8-dichloro-6-(2,6-difluorophenyl)-4-methyl-4H-[1,2,4]triazolo[1,5-a][1,4]benzodiazepine]	62%	1.62	6 nM	6 nM	278 nM	46.3	1.67	0.4 nM
C[C@@H]1N=C(c2ncccc2F)c2c(ccc(Cl)c2Cl)-n2nc(C(=O)N3CC4(CCO4)C3)nc21 [Example 98, [(4S)-7,8-dichloro-6-(3-fluoro-2-pyridyl)-4-methyl-4H-[1,2,4]triazolo[1,5-a][1,4]benzodiazepin-2-yl]-(1-oxa-6-azaspiro[3.3]heptan-6-yl)methanone]	158%	2.58	81.7 nM	81.8 nM	8110 nM	99.2	2.00	29.8 nM
C[C@@H]1N=C(c2c(F)cccc2F)c2c(ccc(C(F)(F)F)c2Cl)-n2ncnc21 [Example 22, (4S)-7-chloro-6-(2,6-difluorophenyl)-4-methyl-8-(trifluoromethyl)-4H-[1,2,4]triazolo[1,5-a][1,4]benzodiazepine]	78%	1.78	11.4 nM	11.4 nM	1560 nM	136.7	2.14	1.02 nM
CNS(=O)(=O)c1nc2n(n1)-c1ccc(Cl)c(Cl)c1C(c1c(F)cccc1F)=N[C@H]2C [Example 73, (4S)-7,8-dichloro-6-(2,6-difluorophenyl)-N,4-dimethyl-4H-[1,2,4]triazolo[1,5-a][1,4]benzodiazepine-2-sulfonamide]	58%	1.58	49.1 nM	49.1 nM	2170 nM	44.1	1.64	2.97 nM
[2H]C([2H])([2H])OC1CN(C(=O)c2nc3n(n2)-c2ccc(C(F)(F)F)c(Cl)c2C(c2ncccc2F)=N[C@H]3C)C1 [Example 104, [(4S)-7-chloro-6-(3-fluor-2-pyridyl)-4-methyl-8-(trifluoromethyl)-4H-[1,2,4]triazolo[1,5-a][1,4]benzodiazepin-2-yl]-[3-(trideuteriomethoxy)azetidin-1-yl]methanone]	117%	2.17	37.3 nM	37.3 nM	6300 nM	168.8	2.23	6.36 nM
